Laboratory results: ChEMBL document CHEMBL3832071, “DailyMed|setid=56428c8f-8a4b-4cbf-93f1-28d8b5cfb51a | MYCOPHENOLATE MOFETIL- mycophenolate mofetil capsule|MYCOPHENOLATE MOFETIL- mycophenolate mofetil tablet, film coated | Cadila Healthcare Limited”
“And” between values parts separate entries of the source, which are not always exact repeats. Equal values may be shown once.

Key:
Format in all cases: ADME, organism-based
Homo sapiens [1] = experiment: Apparent Volume of distribution (Vd) of […] following oral and intravenous (IV) administration of Mycophenolate Mofetil to 12 healthy volunteers; details: in vivo, dosed compound id 90, dosed compound name MYCOPHENOLATE MOFETIL, gender male and female, tissue Plasma
Homo sapiens [2] = experiment: Pharmacokinetic parameters for Mycophenolic acid following single oral administration of Mycophenolate Mofetil to subjects with different health status.; design: dose 1 g, route oral; details: in vivo, dosed compound id 90, dosed compound name MYCOPHENOLATE MOFETIL, gender male and female, regimen Single dose, tissue Plasma
Homo sapiens [3] = experiment: Pharmacokinetic parameters for Mycophenolic acid following multiple administration of Mycophenolate Mofetil to hepatic, cardiac and renal transplant patients, at least 5 days after transplant.; design: dose 600 mg/m2, dose 1.5 g, dose 1 g, route oral, route iv; details: in vivo, 120 h, dosed compound id 90, dosed compound name MYCOPHENOLATE MOFETIL, gender male and female, regimen Twice daily, tissue Plasma

- Vd (Homo sapiens [1]; iv): 3.6 L/kg
- Vd (Homo sapiens [1]; po): 4 L/kg
- AUC(0-48) (Homo sapiens [2]): 29800 ng·h/mL
- Total AUC (Homo sapiens [2]): 63900 ng·h/mL
- AUC(0-12) (Homo sapiens [3]; sampling time1 4 hours): 54.1 µg·h/mL
- AUC(0-12) (Homo sapiens [3]): 43.3 mcg.hr/mL [middle of 21 runs]
- Tmax (Homo sapiens [3]; iv, dose 1 g): 1.58 h and 1.5 h
- Tmax (Homo sapiens [3]; po, dose 1 g): 1.33 h and 1.31 h
- Tmax (Homo sapiens [3]; po, dose 1.5 g): 1.15 hr [middle of 5 runs]
Compound: COc1c(C)c2c(c(O)c1C/C=C(\C)CCC(=O)O)C(=O)OC2 [MYCOPHENOLIC ACID]
- Tmax (Homo sapiens [2]; dose 1 g, route oral): 0.8 h and 0.75 h and 0.63 h and 1 h and 0.85 h
- AUC(0-96) (Homo sapiens [2]): 45000 ng·h/mL and 59900 ng·h/mL and 78600 ng·h/mL
- Cmax (Homo sapiens [2]): 24500 ng/mL and 25300 ng/mL and 16300 ng/mL and 22400 ng/mL
